Experimental data reported in patent US10227331B2 (priority 2015, dated 2019).

Columns and labels:
IMP-1 = IMP-1 (Serratia marcescens, UniProt P52699); assay: biochemical; assay type: biochemical; conditions: CCF2-FA substrate, 2 hours at 25° C; read-out: IMP-1 IC50
Procedure, shortened: (§1)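 Class B activity is measured in the presence of compound by fluorescence with CCF2-FA after a 2-hour incubation at 25° C. IC50 is taken from a 4-parameter fit of semi-logarithmic dose-response data.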

NDM-1 = NDM-1 (Klebsiella pneumoniae, UniProt C7C422); assay: biochemical; assay type: biochemical; conditions: CCF2-FA substrate, 2 hours at 25° C; read-out: NDM-1 IC50
Sequence of NDM-1 (C7C422 whole entry, looked up, species assumed): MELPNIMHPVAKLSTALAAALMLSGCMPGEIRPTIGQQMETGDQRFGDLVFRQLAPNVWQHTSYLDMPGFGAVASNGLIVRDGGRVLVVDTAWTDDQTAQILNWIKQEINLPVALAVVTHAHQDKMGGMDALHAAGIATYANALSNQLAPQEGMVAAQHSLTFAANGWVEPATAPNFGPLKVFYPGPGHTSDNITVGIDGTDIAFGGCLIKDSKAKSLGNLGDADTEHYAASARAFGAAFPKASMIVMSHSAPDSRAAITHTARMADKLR
Procedure, shortened: as §1

VIM-1 = VIM-1 (Pseudomonas aeruginosa (strain ATCC 15692 / DSM 22644 / CIP 104116 / JCM 14847 / LMG 12228 / 1C / PRS 101 / PAO1), UniProt A0A0F7KYQ8); assay: biochemical; conditions: CCF2-FA substrate, 2 hours at 25° C
Procedure, shortened: as §1

[1] = test system: Escherichia coli expressing NDM-1 (CLB30005, CLB30016); assay type: cell-based; conditions: with imipenem 1 μg/ml, 95% inhibition of bacterial growth; for Escherichia coli MITC95: NDM-1 (CLB30016)
Procedure, shortened: (§2)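 Clinical strains grown overnight on blood agar, then diluted 1:100 in 1.1× CAMHB and exposed to test compound with imipenem at 1 μg/ml. Incubation was 22–24 h at 35° C; growth was read by absorbance to find the compound concentration restoring imipenem susceptibility.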

[2] = test system: Serratia marcescens expressing IMP-1 (CL5741); assay type: cell-based; conditions: with imipenem 1 μg/ml, 95% inhibition of bacterial growth; for Serratia marcescens MITC95: IMP-1 (CL5741)
Procedure, shortened: as §2

[3] = test system: Klebsiella pneumoniae expressing VIM-1 (IHMA599644); assay type: cell-based; conditions: with imipenem 1 μg/ml, 95% inhibition of bacterial growth; for Klebsiella pneumoniae MITC95: VIM-1 (IHMA599644)
Procedure, shortened: as §2

[4] = test system: P. aeruginosa expressing IMP-1, efflux− (MB9799); assay: Efflux: concentration of MBL inhibitor which restores susceptibility to imipenem; assay type: cell-based, Pseudomonas aeruginosa; conditions: imipenem at 2 μg/mL, in the presence of a class A, C, D serine β-lactamase inhibitor closely related to relebactam
From the text: (§3) The strain background is Pseudomonas aeruginosa PAO1.

[5] = test system: P. aeruginosa expressing IMP-1, efflux+ (MB9798); assay type: cell-based, Pseudomonas aeruginosa; conditions: for P. aeruginosa expressing IMP-1, efflux+ (MB9798) MITC95: imipenem at 2 μg/mL, in the presence of a class A, C, D serine β-lactamase inhibitor closely related to relebactam; for Efflux ratio: ratio MITC95 PA_9798/MITC95 PA_9799
From the text: as §3

Sequence of IMP-1 (P52699 whole entry, looked up, species assumed): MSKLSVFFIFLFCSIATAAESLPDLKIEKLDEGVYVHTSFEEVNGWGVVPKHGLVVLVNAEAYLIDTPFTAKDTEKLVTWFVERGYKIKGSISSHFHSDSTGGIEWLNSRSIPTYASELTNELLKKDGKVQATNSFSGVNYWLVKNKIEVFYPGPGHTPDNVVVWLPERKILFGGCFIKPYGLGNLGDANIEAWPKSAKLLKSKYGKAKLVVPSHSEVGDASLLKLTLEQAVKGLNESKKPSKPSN

Structure (SMILES) | IC50 (IMP-1) [nM] | IC50 (NDM-1) [nM] | IC50 (VIM-1) [nM] | Escherichia coli MITC95 [1] [µM] | Serratia marcescens MITC95 [2] [µM] | Klebsiella pneumoniae MITC95 [3] [µM] | P. aeruginosa expressing IMP-1, efflux− (MB9799) MITC95 [4] [µM] | P. aeruginosa expressing IMP-1, efflux+ (MB9798) MITC95 [5] [µM] | Efflux ratio [5] | Escherichia coli expressing NDM-1 (CLB30016) MITC95 [1] [µM] | Serratia marcescens expressing IMP-1 (CL5741) MITC95 [2] [µM] | Klebsiella pneumoniae expressing VIM-1 (IHMA599644) MITC95 [3] [µM]
COC(=O)c1cccc(-c2ccc(S(=O)(=O)CCN)c(S(N)(=O)=O)c2-c2nn[nH]n2)c1NCCN [Example 341, Methyl 2-((2-aminoethyl)amino)-4′-((2-aminoethyl)sulfonyl)-3′-sulfamoyl-2′-(2H-tetrazol-5-yl)-[1,1′-biphenyl]-3-carboxylate] | 16.1 | 4.01 | 4.46 | 1.563 | 3.125 | 3.125 | 1.563 | 25 | 15.99 | – | – | –
Nc1nc2cccc(-c3ccc(S(=O)(=O)C4CCNCC4)c(S(N)(=O)=O)c3-c3nn[nH]n3)c2[nH]1 [Example 42, 3-(2-amino-3H-benzo[d]imidazol-4-yl)-6-(piperidin-4-ylsulfonyl)-2-(2H-tetrazol-5-yl)benzenesulfonamide] | 1.19 | 0.177 | 0.306 | – | – | – | 0.7813 | 0.7813 | 1.00 | 0.5859 | 1.563 | 1.563
NS(=O)(=O)c1c(S(=O)(=O)CCO)ccc(-c2cccc3c2ccc[n+]3[O-])c1-c1nn[nH]n1 [Example 320, 5-(4-((2-hydroxyethyl)sulfonyl)-3-sulfamoyl-2-(2H-tetrazol-5-yl)phenyl)quinoline 1-oxide] | 1.06 | 0.939 | 0.208 | 50 | 25 | 12.5 | 6.25 | 25 | 4.00 | – | – | –
NCCS(=O)(=O)c1ccc(-c2cccc3c2nc(N)n3C2CNC2)c(-c2nn[nH]n2)c1S(N)(=O)=O [Example 202, 3-(2-amino-1-(azetidin-3-yl)-1H-benzo[d]imidazol-4-yl)-6-((2-aminoethyl)sulfonyl)-2-(2H-tetrazol-5-yl)benzenesulfonamide] | 0.859 | 2.92 | 1.1 | – | – | – | 1.563 | 6.25 | 4.00 | 1.563 | 3.125 | 3.125
NCCS(=O)(=O)c1ccc(-c2cnc(N)c(C(N)=O)c2)c(-c2nn[nH]n2)c1S(N)(=O)=O [Example 335, 2-Amino-5-(4-((2-aminoethyl)sulfonyl)-3-sulfamoyl-2-(2H-tetrazol-5-yl)phenyl)nicotinamide] | 8.9 | 3.22 | 1.23 | 1.563 | 1.563 | 3.125 | 1.563 | 12.5 | 8.00 | – | – | –
Cn1c(N)nc2cccc(-c3ccc(S(=O)(=O)C4CNC4)c(S(N)(=O)=O)c3-c3nn[nH]n3)c21 [Example 19, 3-(2-Amino-1-methyl-1H-benzo[d]imidazol-7-yl)-6-(azetidin-3-ylsulfonyl)-2-(2H-tetrazol-5-yl)benzenesulfonamide] | 2.5 | 0.108 | 0.153 | – | – | – | 1.563 | 6.25 | 4.00 | 0.7813 | 1.563 | 1.563
COC(=O)c1cccc(-c2ccc(S(=O)(=O)CCN)c(S(N)(=O)=O)c2-c2nn[nH]n2)c1N [Example 197, methyl 2-amino-4′-((2-aminoethyl)sulfonyl)-3′-sulfamoyl-2′-(2H-tetrazol-5-yl)-[1,1′-biphenyl]-3-carboxylate] | 0.554 | 0.556 | 0.262 | – | – | – | 1.563 | 12.5 | 8.00 | 0.7813 | 1.563 | 3.125
Nc1nc2cc(C(F)(F)F)cc(-c3ccc(S(=O)(=O)C4CNC4)c(S(N)(=O)=O)c3-c3nnn[nH]3)c2[nH]1 [Example 260, 3-(2-amino-5-(trifluoromethyl)-1H-benzo[d]imidazol-7-yl)-6-(azetidin-3-ylsulfonyl)-2-(1H-tetrazol-5-yl)benzenesulfonamide] | 1.99 | 0.598 | 0.813 | 6.25 | 6.25 | 12.5 | 6.25 | 6.25 | 1.00 | – | – | –
NC[C@H](O)CS(=O)(=O)c1ccc(-c2cccc3[nH]cnc23)c(-c2nn[nH]n2)c1S(N)(=O)=O [Example 353, (S)-6-((3-amino-2-hydroxypropyl)sulfonyl)-3-(1H-benzo[d]imidazol-4-yl)-2-(2H-tetrazol-5-yl) benzenesulfonamide] | 0.392 | 0.185 | 0.202 | 1.563 | 1.563 | 3.125 | 0.7813 | 0.7813 | 1.00 | – | – | –
N=C(N)c1nc2c(-c3ccc(S(=O)(=O)CCN)c(S(N)(=O)=O)c3-c3nn[nH]n3)cccc2s1 [Example 86, 4-(4-(2-aminoethylsulfonyl)-3-sulfamoyl-2-(2H-tetrazol-5-yl)phenyl)benzo[d]thiazole-2-carboximidamide] | 0.869 | 0.295 | 0.141 | – | – | – | 0.3906 | 1.563 | 4.00 | 0.7813 | 0.7813 | 0.7813
Cc1cc(-c2ccc(S(=O)(=O)C3CNC3)c(S(N)(=O)=O)c2-c2nnn[nH]2)cnc1C#N.O=C(O)C(F)(F)F [Example 99, 3-((4-(6-cyano-5-methylpyridin-3-yl)-2-sulfamoyl-3-(1H-tetrazol-5-yl)phenyl)sulfonyl)azetidin-1-ium 2,2,2-trifluoroacetate] | 13.7 | 3.94 | 0.535 | – | – | – | 1.563 | 200 | 127.96 | 6.25 | 12.5 | 6.25
